In patent US9187458B2, “Cyanoquinoline derivatives” (Tianjin Hemay Bio-Tech Co., LTD., priority 2010, dated 2015):

What was measured:
Type in all cases: cell-based
[1] = system: SW620 cells; test: SW620 Cell Growth Inhibition Test (SRB Assay); settings: Homo sapiens, SW-620, 91 h incubation
Method: SW620 Cell Growth Inhibition Test (SRB Assay)
Cell strains: SW620 (human colorectal cancer cell strains);
SRB: available from Sigmaaldrich, goods number: S9012, lot number: 047K3751. […] was reserved at the room temperature. 0.4% (w/v) of working solution was formulated with 1% of glacial acetic acid. The solution was reserved at 4° C.; anti-tumor compounds; DMSO.
Culture medium: 90% L15+10% FBS;
1. A plate (10 cm) of cells in logarithmic growth phase normally cultured was collected. The culture solution was sucked out. The plate was washed wtih 5 mL of PBS 1-2 times;
2. PBS was sucked out. […] of 0.25% pancreatin was added to infiltrate the cells for 30 s;
3. The pancreatin was sucked out. The culture plate was placed in an incubator. Digestion was carried out for about 1.5-2 min at 37° C.;
4. 4 mL of complete culture solution was added to the culture plate to stop the digestion. The cells were carefully scoured with micropipette (1 ml) to give a uniform single cell suspension;
5. Cell suspension was counted. The suspension was diluted to 1.5×10^5/ml. The resulting suspension was developed uniformly on a plate by 15000 cells/100 μl per well. The culture plate was incubated overnight under 5% CO2 at 37° C. In day 2, 100 μl of culture solution comprising a compound was added in each well, and further incubated for 91 h under 5% CO2 at 37° C.;
6. The culture solution was sucked out. 100 uL of TCA fixed cells which were diluted to 10% were added to each well. The plate was kept in a refrigerator for 1 h at 4° C.
7. TCA stationary liquid was sucked out. Each well was washed with 150 μL of ddH2O five times;
8. After the stationary liquid was cleansed, the plate was dried in the air at the room temperature;
9. 60 μL of SRB staining solution was added in each well. The well was stained for 15 min at the room temperature;
10. The SRB staining solution was sucked out. Each well was washed with 150 μL of 1% glacial acetic acid five times;
11. After the SRB staining solution was cleansed, the plate was dried in the air at the room temperature;
12. 100 μL of 10 mM Tris was added in each well, the plate was vibrated to dissolve out SRB;
13. OD values were determined at 570 nM.
To: OD values of the starting content of cells when the cells were developed on a plate;
PC: OD values of cells after normal growth in control wells without a compound;
Ti: OD values of cells after growth in test wells with a compound;
NC: Background OD values of blank wells without a compound and cells
Therefore: Ratio of cells in test wells to normal wells (% of control cell growth)=(Ti−To)/(PC−To)×100%
Ratio GI50 was concentration of a compound at the point of 50%.
Therefore: Ratio of killed cells to inoculated cells (% of killed cell)=(Ti−To)/(To−NC)×100%
LC50 was concentration point of a compound when half of the starting inoculated concentration was reached.
Concentration of a compound at this point is defined as TGI (total growth inhibition).

[2] = system: CCRF-CEM/T cells; test: CCRF-CEM/T Cell Growth Inhibition Test (MTT Assay); settings: Homo sapiens, CCRF-CEM/T cells (resistant to paclitaxel), 72 h incubation
In short: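 Human acute lymphocytic leukemia CCRF-CEM/T suspension cells, 20000 per well, exposed to compound for 72 h at 37 °C, 5% CO2. MTT added for 3 h, formazan dissolved in SDS/isobutanol/HCl, OD read at 570 nm. IC50 is the concentration giving 50% growth inhibition, from fitted inhibition ratios.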

[3] = system: AsPC-1 cells; test: AsPC-1 Cell Growth Inhibition Test (MTT Assay); settings: Homo sapiens, ASPC1, 72 h incubation
In short: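 Human pancreatic cancer AsPC-1 cells seeded at 8000 cells/well, incubated overnight, then exposed to compound for 72 h at 37 °C, 5% CO2. Viability read by MTT (0.5 mg/ml, 3 h), formazan dissolved in DMSO, OD at 490 nm. Inhibition ratio = (PC−n)/(PC−NC)×100%; IC50 = concentration giving 50% inhibition, curve-fitted.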

[4] = system: SK-OV-3 cells; test: SK-OV-3 Cell Growth Inhibition Test (MTT Assay); settings: Homo sapiens, 72 h incubation
In short: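 SK-OV-3 human ovarian cancer cells in McCoy's 5A/10% FBS were seeded at 4000 cells/well, then exposed to compound for 72 h at 37° C, 5% CO2. Viability was read by MTT (0.5 mg/ml, 3 h) and OD at 490 nm. IC50 = concentration giving 50% inhibition from fitted inhibition ratios.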

Row | GI50 [1] [nM] | IC50 [2] [nM] | IC50 [3] [nM] | IC50 [4] [nM] | SMILES
1 | 1780 | 5600 | 1000 | 457 | CN(C)C/C=C/C(=O)Nc1cc2c(Nc3ccc(OCc4ccccn4)c(Cl)c3)c(C#N)cnc2cc1O[C@H]1CCOC1 [Example 138, (S,E)-N-(4-(3-CHLORO-4-(PYRIDIN-2-YL-METHOXY)PHENYLAMINO)-3-CYANO-7-(TETRAHYDROFURAN-3-YL-OXY)QUINOLIN-6-YL)-4-(DIMETHYLAMINO)-BUT-2-ENAMIDE]
2 | 1900 | 1400 | 422 | 371 | CN(C)C/C=C/C(=O)Nc1cc2c(Nc3ccc(OCc4ccccn4)c(Cl)c3)c(C#N)cnc2cc1O[C@@H]1CCOC1 [Example 139, (R,E)-N-(4-(3-CHLORO-4-(PYRIDIN-2-YL-METHOXY)PHENYLAMINO)-3-CYANO-7-(TETRAHYDROFURAN-3-YL-OXY)QUINOLIN-6-YL)-4-(DIMETHYLAMINO)-BUT-2-ENAMIDE]
3 | 3500 | 5800 | 1000 | 409 | CN(C)C/C=C/C(=O)Nc1cc2c(Nc3ccc(F)c(Cl)c3)c(C#N)cnc2cc1OC1CCOC1 (stereo not shown) [Example 4, (E)-N-(4-(3-CHLORO-4-FLUOROPHENYLAMINO)-3-CYANO-7-(TETRAHYDROFURAN-3-YL-OXY)QUINOLIN-6-YL)-4-(DIMETHYLAMINO)-BUT-2-ENAMIDE]
4 | 2300 | 6600 | 1500 | 553 | CN(C)C/C=C/C(=O)Nc1cc2c(Nc3ccc(F)c(Cl)c3)c(C#N)cnc2cc1O[C@H]1CCOC1 [Example 142, (S,E)-N-(4-(3-CHLORO-4-FLUOROPHENYLAMINO)-3-CYANO-7-(TETRAHYDROFURAN-3-YL-OXY)QUINOLIN-6-YL)-4-(DIMETHYLAMINO)-BUT-2-ENAMIDE]
